Measured values published in paper PMC12519234 (2025).

Key:
[1] = tested on: queT (41 nt) (RNA, riboswitch) ACGUGGUUCAUUCAUACCAUCCCACGUAAAAAAACUAGGAG; assay: 1H NMR imino spectra; details: 25 mM NaCl, 2 mM MgCl2; 15 mM sodium cacodylate pH 6.5, 25 °C, 0.15 mM RNA
[2] = tested on: Tte preQ1 U22Ap (RNA, riboswitch, 2-aminopurine at 22 (replaces U)) CUGGGUCGCAGUAACCCCAGUUAACAAAACAAG; assay: 2-aminopurine fluorescence titration; details: 100 mM KCl, 2 mM MgCl2; 50 mM MOPS pH 7.5, 25 °C, 0.5 µM RNA
[3] = tested on: Tte preQ1 U22Ap (RNA, riboswitch, 2-aminopurine at 22 (replaces U)) CUGGGUCGCAGUAACCCCAGUUAACAAAACAAG; assay: stopped-flow 2-aminopurine fluorescence; koff = kon × KD; details: 100 mM KCl, 2 mM MgCl2; 50 mM MOPS pH 7.5, 25 °C; calculated, one approximate value for preQ1 and 4a
[4] = tested on: Tte preQ1 U22Ap (RNA, riboswitch, 2-aminopurine at 22 (replaces U)) CUGGGUCGCAGUAACCCCAGUUAACAAAACAAG; assay: stopped-flow 2-aminopurine fluorescence; details: 100 mM KCl, 2 mM MgCl2; 50 mM MOPS pH 7.5, 25 °C
[5] = tested on: preQ1-like (40 nt, lmo2684 upstream region) (RNA, mRNA element) UACAGCUAGCUAGCUGAAAAUUAUAAAAAACUAAAGAGGU; assay: 1H NMR imino spectra; details: 25 mM NaCl, 2 mM MgCl2; 15 mM sodium cacodylate pH 6.5, 25 °C, 0.15 mM RNA; no high affinity association

Structure (SMILES): NCc1c[nH]c2nc(N)[nH]c(=O)c12
- binding [1]: yes
- KD(preQ1) [2]: 64 nM
- koff [3]: ~ 7.5 × 10^−4 s^−1
- kon(preQ1) [4]: 13000 M⁻¹ s⁻¹
- binding [5]: no
